System: T.b. brucei (strain 427) bloodstream form parasites
Experiment: T.b. brucei single concentration screen (10 μM)
Conditions: Trypanosoma brucei, read-out: T.b.brucei % viability (10 µM)

Row | SMILES | viability at 10 µM
1 | CC(C)n1ncc2c(C(=O)NCC(c3cccs3)N3CCOCC3)cc(-c3ccccc3)nc21 (centres unmarked) [MMV676406, CC(C)n1ncc2c(cc(nc12)c3ccccc3)C(=O)NCC(N4CCOCC4)c5cccs5] | 61%
2 | N#Cc1nc(-c2ccccc2)oc1S(=O)(=O)c1ccc(Cl)cc1 [MMV676412, Clc1ccc(cc1)S(=O)(=O)c2oc(nc2C#N)c3ccccc3] | 28%
3 | Cc1ccc(NC(=O)CC2COc3ccccc3O2)cc1Cl (centres unmarked) [MMV676431, Cc1ccc(NC(=O)CC2COc3ccccc3O2)cc1Cl] | 77%
4 | Cc1ccc2nc(Cl)c(CNCc3cccs3)cc2c1 [MMV676439, Cc1ccc2nc(Cl)c(CNCc3cccs3)cc2c1] | 99%
5 | CC(C)c1ncc(-c2ccncc2)c([C@H]2CC[C@H](CNC(=O)c3cccnc3)CC2)n1 [MMV676442, CC(C)c1ncc(c2ccncc2)c(n1)[C@@H]3CC[C@@H](CNC(=O)c4cccnc4)CC3] | 103%
6 | O=C(NC1CCCCC1)N1CCN(Cc2ccc3c(c2)OCO3)CC1 [MMV676444, O=C(NC1CCCCC1)N2CCN(Cc3ccc4OCOc4c3)CC2] | 109%
7 | CCCn1c(CNc2ccccc2O)nc2ccccc21 [MMV676445, CCCn1c(CNc2ccccc2O)nc3ccccc13] | 109%
8 | CCc1nc2ccccc2n1CC(O)COc1cc(C)ccc1Cl (centres unmarked) [MMV676449, CCc1nc2ccccc2n1CC(O)COc3cc(C)ccc3Cl] | 83%
9 | CCOC(=O)c1cc(-c2csc(Nc3c(C)cc(C)cc3C)n2)on1 [MMV676461, CCOC(=O)c1cc(on1)c2csc(Nc3c(C)cc(C)cc3C)n2] | 102%
10 | CCOc1ccc(OCC(=O)Nc2cc(C)cc(C)c2)cc1 [MMV676470, CCOc1ccc(OCC(=O)Nc2cc(C)cc(C)c2)cc1] | 75%
11 | COc1cccc(OC)c1C(=O)Nc1ccc(Cl)c(-c2nc3ccccc3s2)c1 [MMV676472, COc1cccc(OC)c1C(=O)Nc2ccc(Cl)c(c2)c3nc4ccccc4s3] | 100%
12 | COc1ccccc1OCCCCn1c(C2CC2)nc2ccccc21 [MMV676474, COc1ccccc1OCCCCn2c(nc3ccccc23)C4CC4] | 93%
13 | Cc1cc(C)cc(COc2ccc3c(C)c(CCC(=O)O)c(=O)oc3c2C)c1 [MMV676476, CC1=C(CCC(=O)O)C(=O)Oc2c(C)c(OCc3cc(C)cc(C)c3)ccc12] | 94%
14 | COC(=O)c1c(NC(=O)c2cc3ccccc3oc2=O)sc2c1CCN(Cc1ccccc1)C2 [MMV676480, COC(=O)c1c2CCN(Cc3ccccc3)Cc2sc1NC(=O)C4=Cc5ccccc5OC4=O] | 101%
15 | O=C(Nc1nnc(S)s1)c1cc(Br)ccc1Cl [MMV676492, Sc1nnc(NC(=O)c2cc(Br)ccc2Cl)s1] | 106%
16 | O=C(Nc1nnc(-c2ccc(Cl)s2)o1)c1ccc(Cl)s1 [MMV676501, Clc1ccc(s1)C(=O)Nc2oc(nn2)c3ccc(Cl)s3] | 93%
17 | Cc1ccc2oc(-c3cc(NC(=O)Cc4ccccc4)ccc3Cl)nc2c1 [MMV676509, Cc1ccc2oc(nc2c1)c3cc(NC(=O)Cc4ccccc4)ccc3Cl] | 99%
18 | O=C(c1cc2ccccc2o1)N1CCN(Cc2ccc3c(c2)OCO3)CC1 [MMV676520, O=C(N1CCN(Cc2ccc3OCOc3c2)CC1)c4oc5ccccc5c4] | 97%
19 | Nc1cccnc1Nc1ccc(Cl)cc1 [MMV676524, Nc1cccnc1Nc2ccc(Cl)cc2] | 110%

Row | SMILES | viability at 10 µM
20 | COc1ccc(-c2cc(NC(=O)c3ccc(F)cc3Cl)ccc2OC)cc1 [MMV676526, COc1ccc(cc1)c2cc(NC(=O)c3ccc(F)cc3Cl)ccc2OC] | 93%
21 | Cc1cccc(NC(=O)c2cc(S(=O)(=O)N(C)c3ccc(F)cc3)ccc2Cl)n1 [MMV676528, CN(c1ccc(F)cc1)S(=O)(=O)c2ccc(Cl)c(c2)C(=O)Nc3cccc(C)n3] | 96%
22 | COCC(C)NC(=O)CSc1ncnc2sc(-c3ccccc3)cc12 (centres unmarked) [MMV676536, COCC(C)NC(=O)CSc1ncnc2sc(cc12)-c1ccccc1] | 97%
23 | O=C(NCCc1c[nH]c2ccccc12)c1cc2ccccc2oc1=O [MMV676539, O=C(NCCc1c[nH]c2ccccc12)C3=Cc4ccccc4OC3=O] | 83%
24 | COc1ccc(Nc2ccccc2NC(=O)c2ccc(O)nc2)cc1 [MMV676554, COc1ccc(Nc2ccccc2NC(=O)c3ccc(O)nc3)cc1] | 115%
25 | Cc1nnc(NCc2cccc(Cl)c2)c2ccccc12 [MMV676555, Cc1nnc(NCc2cccc(Cl)c2)c3ccccc13] | 97%
26 | CC1=NN(c2nc3ccccc3s2)C(=O)C1Cc1cccc2ccccc12 (centres unmarked) [MMV676558, CC1=NN(C(=O)C1Cc2cccc3ccccc23)c4nc5ccccc5s4] | 45%
27 | COc1ccc(-c2nc(-c3cccc(NC(=O)Cc4ccc(F)cc4)c3)no2)cc1OC [MMV676571, COc1ccc(cc1OC)c2onc(n2)c3cccc(NC(=O)Cc4ccc(F)cc4)c3] | 53%
28 | O=C(NC1=NCCS1)c1sc2cc(F)ccc2c1Cl [MMV676584, Fc1ccc2c(Cl)c(sc2c1)C(=O)NC3=NCCS3] | 82%
29 | Nc1c2c(nc3sc4c(c13)CCCC4)CCCC2 [MMV676588, Nc1c2CCCCc2nc3sc4CCCCc4c13] | 99%
30 | O=C(CCC1CCCCC1)Nc1cccc(-c2nnc(-c3ccco3)o2)c1 [MMV676589, O=C(CCC1CCCCC1)Nc2cccc(c2)c3oc(nn3)c4occc4] | 95%
31 | CCCn1nnc(NC(=O)COc2ccc(C3CCCCC3)cc2)n1 [MMV676597, CCCn1nnc(NC(=O)COc2ccc(cc2)C3CCCCC3)n1] | 71%
32 | CC(C)(C)n1nc(Cc2cccc3ccccc23)c2c(N)ncnc21 [MMV676599, CC(C)(C)n1nc(Cc2cccc3ccccc23)c4c(N)ncnc14] | 87%
33 | CC1COC2(CCN(c3nc(=O)c4cc(C(F)(F)F)cc([N+](=O)[O-])c4s3)CC2)O1 (centres unmarked) [MMV676603, CC1COC2(CCN(CC2)C3=NC(=O)c4cc(cc(c4S3)[N+](=O)[O-])C(F)(F)F)O1] | 82%
34 | C[C@]1(O)C[C@@H](c2nc(-c3ccc4ccc(-c5ccccc5)nc4c3)c3c(N)nccn32)C1 [MMV676605, C[C@@]1(O)C[C@@H](C1)c2nc(c3ccc4ccc(nc4c3)c5ccccc5)c6c(N)nccn26] | 67%
35 | O=C(c1ccc(NCCO)cc1)C1C[C@H]1c1ccc(Cl)cc1 (some centres unmarked) [MMV676877, OCCNc1ccc(cc1)C(=O)C2C[C@H]2c3ccc(Cl)cc3] | 102%
36 | CCn1cnc2c(Nc3cc(F)cc(F)c3)nc(C#N)nc21 [MMV676881, CCn1cnc2c(Nc3cc(F)cc(F)c3)nc(nc12)C#N] | 70%
37 | NC(=O)c1cc(-c2ccsc2)ccc1OCCOc1ccccc1 [MMV687138, NC(=O)c1cc(ccc1OCCOc2ccccc2)c3ccsc3] | 104%
38 | CCCCS(=O)(=O)Nc1ccc2cnn(C)c2c1 [MMV687145, CCCCS(=O)(=O)Nc1ccc2cnn(C)c2c1] | 95%

Row | SMILES | viability at 10 µM
39 | Cc1cc(C)c2cc(C(=O)NC3CCCCCCC3)[nH]c2c1 [MMV687146, Cc1cc(C)c2cc([nH]c2c1)C(=O)NC3CCCCCCC3] | 92%
40 | COc1ccc(Cn2cnc3c(-c4ccco4)nc(Cl)nc32)cc1 [MMV687170, COc1ccc(Cn2cnc3c(nc(Cl)nc23)c4occc4)cc1] | 97%
41 | O=C(C1CCN(c2cc(-n3cccc3)ncn2)CC1)N1CCc2ccccc2C1 [MMV687172, O=C(C1CCN(CC1)c2cc(ncn2)n3cccc3)N4CCc5ccccc5C4] | 93%
42 | CCc1ccc([C@@H]2C[C@H](C(F)(F)F)n3ncc(C(=O)NCc4ccc(OC)cc4)c3N2)cc1 [MMV687180, CCc1ccc(cc1)[C@@H]2C[C@@H](n3ncc(C(=O)NCc4ccc(OC)cc4)c3N2)C(F)(F)F] | 57%
43 | COc1ccc2nc(C)cc(OCC(=O)Nc3ccccc3OC)c2c1 [MMV687188, COc1ccc2nc(C)cc(OCC(=O)Nc3ccccc3OC)c2c1] | 92%
44 | COc1ccc2nc(C)cc(OCC(=O)NCc3ccccc3)c2c1 [MMV687189, COc1ccc2nc(C)cc(OCC(=O)NCc3ccccc3)c2c1] | 92%
45 | CC(C)(C(=O)Nc1ccc(F)cc1)n1cc(-c2ccccc2F)cn1 [MMV687239, CC(C)(C(=O)Nc1ccc(F)cc1)n2cc(cn2)c3ccccc3F] | 89%
46 | NC(=O)c1cc(Br)ccc1OCCOc1ccccc1 [MMV687243, NC(=O)c1cc(Br)ccc1OCCOc2ccccc2] | 92%
47 | CN1CCN(S(=O)(=O)c2ccc(-c3ccc4c(Nc5ccc6nn[nH]c6c5)ccnc4c3)cc2)CC1 [MMV687246, CN1CCN(CC1)S(=O)(=O)c2ccc(cc2)c3ccc4c(Nc5ccc6nn[nH]c6c5)ccnc4c3] | 106%
48 | Cn1c(=O)c2c(S(C)(=O)=O)snc2n(C)c1=O [MMV687251, CN1C(=O)N(C)c2nsc(c2C1=O)S(=O)(=O)C] | 98%
49 | CCCCc1ccc(C(=O)Nc2nccc3ccccc23)nc1 [MMV687254, CCCCc1ccc(nc1)C(=O)Nc2nccc3ccccc23] | 81%
50 | CCc1nc2ccc(Cl)cn2c1C(=O)NCc1ccc(N2CCC(c3ccc(OC(F)(F)F)cc3)CC2)cc1 [MMV687696, CCc1nc2ccc(Cl)cn2c1C(=O)NCc3ccc(cc3)N4CCC(CC4)c5ccc(OC(F)(F)F)cc5] | 99%
51 | O=C(NCc1cc(Cl)cc(Cl)c1)c1c(C(F)(F)F)nc2ccccn12 [MMV687699, FC(F)(F)c1nc2ccccn2c1C(=O)NCc3cc(Cl)cc(Cl)c3] | 99%
52 | Nc1ncnc2c1ncn2[C@@H]1O[C@H](COS(=O)(=O)NC(=O)c2ccccc2O)[C@@H](O)[C@H]1O [MMV687700, Nc1ncnc2c1ncn2[C@@H]3O[C@H](COS(=O)(=O)NC(=O)c4ccccc4O)[C@@H](O)[C@H]3O] | 104%
53 | O=C1O[C@@H](CO)CN1c1cc(F)c(C2=CCN(Cc3ccccc3)CC2)c(F)c1 [MMV687729, OC[C@H]1CN(C(=O)O1)c2cc(F)c(C3=CCN(Cc4ccccc4)CC3)c(F)c2] | 101%
54 | CCCCOC(=O)Nc1cc2nc(C3CCCCC3)[nH]c2cc1N1CCCC1 [MMV687730, CCCCOC(=O)Nc1cc2nc([nH]c2cc1N3CCCC3)C4CCCCC4] | 61%
55 | Cc1cc(OCC(=O)NCc2ccccc2)c2cc(Br)ccc2n1 [MMV687747, Cc1cc(OCC(=O)NCc2ccccc2)c3cc(Br)ccc3n1] | 89%
56 | c1ccc(C[C@@H]2CN(c3nccc(Oc4ccc(-n5ccnc5)cc4)n3)CCN2)cc1 [MMV687749, C([C@@H]1CN(CCN1)c2nccc(Oc3ccc(cc3)n4ccnc4)n2)c5ccccc5] | 60%

— publication PMC6301270 (MedChemComm, 2018)
